Experiments:
Renin [1] = target: T1, Renin (Homo sapiens, UniProt P00797); assay: Inhibition of human recombinant renin by TR-FRET assay
T1 sequence (P00797 whole entry): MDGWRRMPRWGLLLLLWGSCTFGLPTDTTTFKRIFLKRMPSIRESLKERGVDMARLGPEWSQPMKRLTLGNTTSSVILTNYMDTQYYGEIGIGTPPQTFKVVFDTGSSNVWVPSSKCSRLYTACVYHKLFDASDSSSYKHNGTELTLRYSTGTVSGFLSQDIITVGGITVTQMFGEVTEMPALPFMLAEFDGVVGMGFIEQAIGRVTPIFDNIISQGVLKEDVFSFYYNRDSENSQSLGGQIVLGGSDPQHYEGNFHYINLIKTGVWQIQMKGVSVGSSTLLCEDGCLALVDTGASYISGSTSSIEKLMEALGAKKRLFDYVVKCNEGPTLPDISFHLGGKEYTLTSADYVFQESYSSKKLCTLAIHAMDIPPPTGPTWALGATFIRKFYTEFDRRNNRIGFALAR

Renin [2] = target: T1, Renin; assay: Inhibition of human recombinant renin in presence of plasma by TR-FRET assay
Cytochrome P450 3A4 = Cytochrome P450 3A4 (Homo sapiens, UniProt P08684); assay: Inhibition of CYP3A4 (unknown origin) using 7-benzyl-4-trifluoromethylcoumarin as fluorometric substrate; format: ADME
[3] = Ratio of permeability from basolateral to apical to side over apical to basolateral side in human Caco2 cells; format: ADME, cell-based; conditions: caco-2
Rattus norvegicus = assay: Reduction in mean arterial blood pressure in orally dosed hypertensive telemetered double-transgenic rat overexpressing human renin and angiotensinogen; format: functional, organism-based

Cytochrome P450 3A4, sequence (P08684 whole entry): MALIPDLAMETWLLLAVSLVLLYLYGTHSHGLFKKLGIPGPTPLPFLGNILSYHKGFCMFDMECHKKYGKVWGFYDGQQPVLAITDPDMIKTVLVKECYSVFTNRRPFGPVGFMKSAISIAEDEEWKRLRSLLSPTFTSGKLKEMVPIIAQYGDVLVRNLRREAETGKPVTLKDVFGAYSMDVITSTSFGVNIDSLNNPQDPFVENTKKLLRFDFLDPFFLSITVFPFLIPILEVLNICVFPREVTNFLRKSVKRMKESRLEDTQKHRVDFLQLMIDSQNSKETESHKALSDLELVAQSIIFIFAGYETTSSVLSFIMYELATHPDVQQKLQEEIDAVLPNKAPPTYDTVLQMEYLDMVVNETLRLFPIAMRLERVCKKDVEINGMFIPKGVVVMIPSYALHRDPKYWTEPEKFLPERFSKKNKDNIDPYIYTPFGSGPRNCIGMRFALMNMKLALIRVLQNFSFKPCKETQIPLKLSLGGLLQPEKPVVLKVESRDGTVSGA

| SMILES | IC50 (Renin [1]) [nM] | also measured |
| --- | --- | --- |
| COCCCOc1cc(C(=O)N(C[C@@H]2CNC[C@H]2OC(=O)N(C)Cc2nc3ccccc3s2)C(C)C)ccc1OC (racemic) | 30 | – |
| COCCCOc1cc(C(=O)N(C[C@@H]2CNC[C@H]2OC(=O)N(C)Cc2ccccc2)C(C)C)ccc1OC (racemic) | 350 | – |
| COCCCOc1cc(C(=O)N(C[C@@H]2CNC[C@H]2OC(=O)N(C)Cc2cccc3c2OCO3)C(C)C)ccc1OC (racemic) | 20 | – |
| COCCCOc1cc(C(=O)N(C[C@H]2CNC[C@@H]2OC(=O)NCc2ccccc2)C(C)C)ccc1OC | 9200 | – |
| COCCCOc1cc(C(=O)N(C[C@@H]2CNC[C@H]2OC(=O)NCc2ccco2)C(C)C)ccc1OC (racemic) | 90 | – |
| COCCCOc1cc(C(=O)N(C[C@@H]2CNC[C@H]2OC(=O)N(C)Cc2ccccc2-n2cccc2)C(C)C)ccc1OC (racemic) | 9 | – |
| COCCCOc1cc(C(=O)N(C[C@@H]2CNC[C@H]2OC(=O)N2CCCC2)C(C)C)ccc1OC (racemic) | 1150 | – |
| COCCCOc1cc(C(=O)N(C[C@@H]2CNC[C@H]2OC(=O)NCc2ccccc2)C(C)C)ccc1OC | – | inhibition (Rattus norvegicus): Dose-dependent effect |
| COCCCOc1cc(C(=O)N(C[C@@H]2CNC[C@H]2Oc2ccc(C(F)(F)F)cc2)C(C)C)ccc1OC (racemic) | 450 | – |
| COCCCOc1cc(C(=O)N(C[C@@H]2CNC[C@H]2OC(=O)N(C)Cc2ccccc2N2CCCC2)C(C)C)ccc1OC (racemic) | 80 | – |
| COCCCOc1cc(C(=O)N(C[C@@H]2CNC[C@H]2OC(=O)NCc2nccs2)C(C)C)ccc1OC (racemic) | 100 | – |
| COCCCOc1cc(C(=O)N(C[C@@H]2CNC[C@H]2OC(=O)NCc2ccccc2)C(C)C)ccc1OC (racemic) | 80 | – |

More lines, main results first:

| IC50 (Renin [1]) [nM] | SMILES | also measured |
| --- | --- | --- |
| 300 | COCCCOc1cc(C(=O)N(C[C@@H]2CNC[C@H]2OC(=O)Nc2cccc(OC)c2)C(C)C)ccc1OC (racemic) | – |
| 65 | COCCCOc1cc(C(=O)N(C[C@@H]2CNC[C@H]2OCc2cccc(-c3ccccc3OC)c2)C(C)C)ccc1OC (racemic) | – |
| 45 | COCCCOc1cc(C(=O)N(C[C@@H]2CNC[C@H]2OC(=O)N(C)Cc2cccc3ccccc23)C(C)C)ccc1OC (racemic) | IC50 (Renin [2]): 35 nM |
| 250 | COCCCOc1cc(C(=O)N(C[C@@H]2CNC[C@H]2OCc2cccc(Oc3ccccc3)c2)C(C)C)ccc1OC (racemic) | – |
| 85 | COCCCOc1cc(C(=O)N(C[C@@H]2CNC[C@H]2OCc2cccc(-n3cccc3)c2)C(C)C)ccc1OC (racemic) | IC50 (Cytochrome P450 3A4): ≤ 200 nM |
| 65 | COCCCOc1cc(C(=O)N(C[C@@H]2CNC[C@H]2OCc2cccc(-c3cccc(C)c3)c2)C(C)C)ccc1OC (racemic) | – |
| 770 | COCCCOc1cc(C(=O)N(C[C@@H]2CNC[C@H]2OCc2ccccc2)C(C)C)ccc1OC (racemic) | Ratio [3]: 62; IC50 (Renin [2]): 850 nM |
| 550 | CCOc1ccccc1-c1cccc(CO[C@@H]2CNC[C@H]2CN(C(=O)c2ccc(OC)c(OCCCOC)c2)C(C)C)c1 (racemic) | – |
| 145 | COCCCOc1cc(C(=O)N(C[C@@H]2CNC[C@H]2OCc2cccc(-c3ccccc3)c2)C(C)C)ccc1OC (racemic) | IC50 (Cytochrome P450 3A4): ≤ 200 nM; IC50 (Renin [2]): 1100 nM |
| 90 | COCCCOc1cc(C(=O)N(C[C@@H]2CNC[C@H]2OCc2ccc3ccccc3c2)C(C)C)ccc1OC (racemic) | – |
| 3150 | COCCCOc1cc(C(=O)N(C[C@H]2CNC[C@H]2OCc2ccccc2)C(C)C)ccc1OC (racemic) | – |
| 200 | COCCCOc1cc(C(=O)N(C[C@@H]2CNC[C@H]2OCc2cccc3ccccc23)C(C)C)ccc1OC (racemic) | – |
| 250 | COCCCOc1cc(C(=O)N(C[C@@H]2CNC[C@H]2OCc2cccc(OC)c2)C(C)C)ccc1OC (racemic) | IC50 (Cytochrome P450 3A4): ≤ 200 nM |
| 350 | COCCCOc1cc(C(=O)N(C[C@@H]2CNC[C@H]2OCc2cccc(-c3cccc(OC)c3)c2)C(C)C)ccc1OC (racemic) | – |

Source: ChEMBL document CHEMBL3400053, “trans-3,4-Disubstituted pyrrolidines as inhibitors of the human aspartyl protease renin. Part II: prime site exploration using an oxygen linker” (Bioorg Med Chem Lett, 2015)
